Assay results as given in patent publication US7531671B2, “Dihydroisoindolones as allosteric modulators of glucokinase” (Janssen Pharmaceutica N.V., priority 2005, dated 2009).
“And” between values parts separate entries of the source, which are not always exact repeats. Identical values can stand only once.

Target: T1, human pancreas Glucokinase (GK) (Homo sapiens, UniProt P35557)
T1 construct: (His)6; made in house; host or cells: Escherichia coli
T1 sequence (P35557 1-465): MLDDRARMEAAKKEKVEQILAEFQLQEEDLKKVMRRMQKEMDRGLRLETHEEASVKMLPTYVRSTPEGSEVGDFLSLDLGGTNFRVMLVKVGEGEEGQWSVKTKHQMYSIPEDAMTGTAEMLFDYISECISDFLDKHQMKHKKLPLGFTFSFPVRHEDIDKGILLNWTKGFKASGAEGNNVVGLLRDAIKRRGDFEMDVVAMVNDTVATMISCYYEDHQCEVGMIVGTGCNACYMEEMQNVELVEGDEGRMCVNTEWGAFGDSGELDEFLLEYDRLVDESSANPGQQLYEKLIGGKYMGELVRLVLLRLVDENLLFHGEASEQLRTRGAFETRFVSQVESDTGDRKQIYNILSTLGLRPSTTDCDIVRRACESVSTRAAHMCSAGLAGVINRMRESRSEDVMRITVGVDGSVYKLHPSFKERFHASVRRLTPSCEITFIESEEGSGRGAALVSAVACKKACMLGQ
Experiment: Glucokinase enzyme assay, Pancreas GK data
Assay type: biochemical
Conditions: for activation at 50 µM: compound 50 μM, percentage increase in GK activity above vehicle control, 12 mM glucose; for EC50: concentration producing 50% activation above vehicle control; for EC100%: concentration producing 100% activation above vehicle control
Text: An enzymatic Glucokinase (GK) assay using purified recombinant human liver/pancreas enzyme was used to evaluate the effects of potential small molecule modulators.
In this assay, GK catalyzes glucose phosphorylation in the presence of ATP. The product of this reaction, glucose-6-phosphate, was then oxidized by an excess of glucose-6-phosphate dehydrogenase to produce gluconate-6-phosphate with concomitant reduction of nicotinamide adenine dinucleotide (NAD). […] Human GK (Liver/Pancreas) was expressed in Escherichia coli as a (His) 6-tagged fusion protein and was purified by metal chelate affinity chromatography. The assay was performed in a final incubation volume of 80 μl in a 96-well clear low UV absorption plates. The incubation mixture consisted of 25 mM HEPES, 2 mM MgSO4, 1 mM dithiothreotol (DTT), 1 mg/ml bovine serum albumin (BSA), 1 mM ATP, 1 mM NAD, and 12 mM glucose, 10 units per ml glucose-6-phosphate dehydrogenase, and +/−300 ng per ml GK. For determination of the affinity (Km) and Vmax, different concentrations of glucose ranging from 0.5 mM to 40 mM were used in the assay; see Grimsby, J., Sarabu, R.; Grippo, J. F.; et. al. Science 2003, 301, 370-373. Production of reduced NAD (Nicotinamide Adenine Dinucleotide) was measured as changes in absorption at 340 nm in 96-well plate reader (Envision model # 2101 Multilabel Plate reader). % Activation @ 50 μM was calculated as the percentage increase in GK activity above the vehicle control with the effective concentration of the compound being 50 μM. EC50% (μM) was calculated as the effective concentration of the compound that produces 50% activation above the vehicle control, and EC100% (μM) was calculated as the effective concentration of the compound that produces 100% activation above the vehicle control.

activation at 50 µM | EC50 | EC100% | Compound
201% | 1000 nM | 3.8 µM | O=C(CSC1c2ccccc2C(=O)N1Cc1ccc2c(c1)OCCO2)Nc1ccccn1 (stereo not shown) [Compound 38, 2-[2-(2,3-Dihydro-benzo[1,4]dioxin-6-ylmethyl)-3-oxo-2,3-dihydro-1H-isoindol-1-ylsulfanyl]-N-pyridin-2-yl-acetamide]
193% | 1400 nM | 5.3 µM | COc1cc(CN2C(=O)c3ccccc3C2SCC(=O)Nc2ccccn2)cc(OC)c1OC (stereo not shown) [Compound 39, 2-[3-Oxo-2-(3,4,5-trimethoxy-benzyl)-2,3-dihydro-1H-isoindol-1-ylsulfanyl]-N-pyridin-2-yl-acetamide]
109% | 2100 nM | 16.1 µM | O=C(CSC1c2ccccc2C(=O)N1Cc1ccc(N2CCCC2=O)cc1)Nc1ccccn1 (stereo not shown) [Compound 40, 2-{3-Oxo-2-[4-(2-oxo-pyrrolidin-1-yl)-benzyl]-2,3-dihydro-1H-isoindol-1-ylsulfanyl}-N-pyridin-2-yl-acetamide]
152% | 2800 nM | 10 µM | O=C(CSC1c2ccccc2C(=O)N1Cc1ccc2c(c1)OCO2)Nc1ccccn1 (stereo not shown) [Compound 41, 2-(2-Benzo[1,3]dioxol-5-ylmethyl-3-oxo-2,3-dihydro-1H-isoindol-1-ylsulfanyl)-N-pyridin-2-yl-acetamide]
– | 540 nM and 780 nM | 1.6 µM and 2.4 µM | COc1ccc(CN2C(=O)c3ccccc3C2SCC(=O)Nc2ccccn2)cc1OC (stereo not shown) [Compound 42, 2-[2-(3,4-Dimethoxybenzyl)-3-oxo-2,3-dihydro-1H-isoindol-1-ylsulfanyl]-N-pyridin-2-yl-acetamide]
112% | 4000 nM | 7.1 µM | O=C(CSC1c2ccccc2C(=O)N1Cc1cccc2ccccc12)Nc1ccccn1 (stereo not shown) [Compound 43, 2-(2-Naphthalen-1-ylmethyl-3-oxo-2,3-dihydro-1H-isoindol-1-ylsulfanyl)-N-pyridin-2-yl-acetamide]
116% | 890 nM | 5.9 µM | O=C(CSC1c2ccccc2C(=O)N1Cc1ccc2sccc2c1)Nc1ccccn1 (stereo not shown) [Compound 44, 2-(2-Benzo[b]thiophen-5-ylmethyl-3-oxo-2,3-dihydro-1H-isoindol-1-ylsulfanyl)-N-pyridin-2-yl-acetamide]
132% | 380 nM | 2 µM | Cc1[nH]c2ccc(CN3C(=O)c4ccccc4C3SCC(=O)Nc3ccccn3)cc2c1C (stereo not shown) [Compound 45, 2-[2-(2,3-Dimethyl-1H-indol-5-ylmethyl)-3-oxo-2,3-dihydro-1H-isoindol-1-ylsulfanyl]-N-pyridin-2-yl-acetamide]
106% | 800 nM | 4.8 µM | O=C(CSC1c2ccccc2C(=O)N1Cc1ccc(-n2cccc2)cc1)Nc1ccccn1 (stereo not shown) [Compound 46, 2-[3-Oxo-2-(4-pyrrol-1-yl-benzyl)-2,3-dihydro-1H-isoindol-1-ylsulfanyl]-N-pyridin-2-yl-acetamide]
106% | 800 nM | – | O=C(CSC1c2ccccc2C(=O)N1Cc1ccc(-n2cccn2)cc1)Nc1ccccn1 (stereo not shown) [Compound 47, 2-[3-Oxo-2-(4-pyrazol-1-yl-benzyl)-2,3-dihydro-1H-isoindol-1-ylsulfanyl]-N-pyridin-2-yl-acetamide]
174% | 1600 nM | 6.9 µM | O=C(CSC1c2ccccc2C(=O)N1Cc1ccc(OC(F)(F)F)cc1)Nc1ccccn1 (stereo not shown) [Compound 48, 2-[3-Oxo-2-(4-trifluoromethoxybenzyl)-2,3-dihydro-1H-isoindol-1-ylsulfanyl]-N-pyridin-2-yl-acetamide]
250% | 210 nM | 0.86 µM | COc1ccc(CN2C(=O)c3ccccc3C2SCC(=O)Nc2ccccn2)cc1 (stereo not shown) [Compound 49, 2-[2-(4-Methoxybenzyl)-3-oxo-2,3-dihydro-1H-isoindol-1-ylsulfanyl]-N-pyridin-2-yl-acetamide]
161% | 360 nM | 1.7 µM | CN(C)c1ccc(CN2C(=O)c3cccc(F)c3C2SCC(=O)Nc2ccccn2)cc1 (stereo not shown) [Compound 51, 2-[2-(4-Dimethylaminobenzyl)-7-fluoro-3-oxo-2,3-dihydro-1H-isoindol-1-ylsulfanyl]-N-pyridin-2-yl-acetamide]
– | – | 0.056 µM and 0.066 µM | COc1ccc(CN2C(=O)c3cccc(F)c3C2SCC(=O)Nc2ccccn2)cc1OC (stereo not shown) [Compound 52, 2-[2-(3,4-Dimethoxybenzyl)-7-fluoro-3-oxo-2,3-dihydro-1H-isoindol-1-ylsulfanyl]-N-pyridin-2-yl-acetamide]
101% | 18300 nM | – | CCCCN1C(=O)c2ccccc2C1OCC(=O)Nc1nccs1 (stereo not shown) [Compound 53, 2-(2-Butyl-3-oxo-2,3-dihydro-1H-isoindol-1-yloxy)-N-thiazol-2-yl-acetamide]
358% | 1100 nM | 6.1 µM | O=C(CSC1c2ccccc2C(=O)N1Cc1ccc(F)cc1)Nc1ccc(C(=O)O)cn1 (stereo not shown) [Compound 54, 6-{2-[2-(4-Fluorobenzyl)-3-oxo-2,3-dihydro-1H-isoindol-1-ylsulfanyl]-acetylamino}-nicotinic acid]
246% | 1350 nM | 3.4 µM | COc1ccc(CN2C(=O)c3ccccc3C2SCC(=O)Nc2ccc(C(=O)O)cn2)cc1 (stereo not shown) [Compound 55, 6-{2-[2-(4-Methoxybenzyl)-3-oxo-2,3-dihydro-1H-isoindol-1-ylsulfanyl]-acetylamino}-nicotinic acid]
219% | 850 nM | 2.7 µM | COc1ccc(CN2C(=O)c3ccccc3C2SCC(=O)Nc2ccc(C(=O)O)cn2)cc1OC (stereo not shown) [Compound 56, 6-{2-[2-(3,4-Dimethoxybenzyl)-3-oxo-2,3-dihydro-1H-isoindol-1-ylsulfanyl]-acetylamino}-nicotinic acid]
258% | 130 nM | 0.4 µM | COc1ccc(CN2C(=O)c3c(F)ccc(F)c3C2SCC(=O)Nc2ccc(C(=O)O)cn2)cc1OC (stereo not shown) [Compound 57, 6-{2-[2-(3,4-Dimethoxybenzyl)-4,7-difluoro-3-oxo-2,3-dihydro-1H-isoindol-1-ylsulfanyl]-acetylamino}-nicotinic acid]
70% | 27000 nM | – | Cc1ccc2c(c1)C(OCC(=O)Nc1cnccn1)N(Cc1ccccc1)C2=O (stereo not shown) [Compound 58, 2-(2-Benzyl-6-methyl-3-oxo-2,3-dihydro-1H-isoindol-1-yloxy)-N-pyrazin-2-yl-acetamide]
127% | 3300 nM | 20.58 µM | COC(=O)c1ccc(NC(=O)COC2c3cc(C)ccc3C(=O)N2Cc2ccccc2)nc1 (stereo not shown) [Compound 59]
102% | 7600 nM | – | Cc1ccc2c(c1)C(OCC(=O)Nc1nccs1)N(Cc1ccccc1)C2=O (stereo not shown) [Compound 60, 2-(2-Benzyl-6-methyl-3-oxo-2,3-dihydro-1H-isoindol-1-yloxy)-N-thiazol-2-yl-acetamide]
8.4% | 26000 nM | – | Cc1ccc2c(c1)C(OCC(=O)Nc1ccccn1)N(Cc1ccccc1)C2=O (stereo not shown) [Compound 61, 2-(2-Benzyl-6-methyl-3-oxo-2,3-dihydro-1H-isoindol-1-yloxy)-N-pyridin-2-yl-acetamide]
